# Experimental data taken from US11098010B2 (priority 2017, dated 2021).
# Where a name gives a salt, the structure may show the parent alone.
# System: HBV rcDNA in HepDE19 cells
# Experiment: HepDE19 assay with bDNA quantitation of HBV rcDNA
# Assay type: cell-based, hepatitis B virus (HBV)
# Conditions: HepDE19 cells, inhibition of rcDNA formation, 7 day incubation, top concentration 25 μM; read-out: DE-19 bDNA EC50
# Experimental: HepDE19 Assay with bDNA Quantitation of HBV rcDNA:
# HepDE19 cell culture system is a HepG2 (human hepatocarcinoma) derived cell line that supports HBV DNA replication and cccDNA formation in a tetracycline (Tet)-regulated manner and produces HBV rcDNA and a detectable reporter molecule dependent on the production and maintenance of cccDNA (Guo, et al., 2007, J. Virol. 81:12472-12484).
# HepDE19 (50,000 cells/well) were plated in 96-well collagen-coated tissue-culture treated microtiter plates in DMEM/F12 medium supplemented with 10% fetal bovine serum, 1% penicillin-streptomycin and 1 μg/mL tetracycline and incubated in a humidified incubator at 37° C. and 5% CO2 overnight. Next day, the cells were switched to fresh medium without tetracycline and incubated for 4 hours at 37° C. and 5% CO2. The cells were treated with fresh Tet-free medium with compounds at concentrations starting at 25 μM and a serial, ½ log, 8-point, titration series in duplicate. The final DMSO concentration in the assay was 0.5%. The plates were incubated for 7 days in a humidified incubator at 37° C. and 5% CO2. Following a 7 day-incubation, the level of rcDNA present in the inhibitor-treated wells was measured using a Quantigene 2.0 bDNA assay kit (Affymetrix, Santa Clara, Calif.) with HBV specific custom probe set and manufacturers instructions. Concurrently, the effect of compounds on cell viability was assessed using replicate plates, plated at a density of 5,000 cells/well and incubated for 4 days, to determine the ATP content as a measure of cell viability using the cell-titer glo reagent (CTG; Promega Corporation, Madison, Wis.) as per manufacturer's instructions. The plates were read using a Victor luminescence plate reader (PerkinElmer Model 1420 Multilabel counter) and the relative luminescence units (RLU) data generated from each well was calculated as % inhibition of the untreated control wells and analyzed using XL-Fit module in Microsoft Excel to determine EC50 and EC90 (bDNA) and CC50 (CTG) values using a 4-parameter curve fitting algorithm.
# Representative compounds of the invention were tested for their abilities to inhibit formation of relaxed circular DNA (rcDNA) in a HepDE19 assay, as described elsewhere herein.
row,SMILES,EC50
1,"COC(=O)NC1(C)CCc2c(C(=O)Nc3ccc(F)c(Cl)c3)ccc(F)c21 (stereo not drawn) [Compound 217, O-Methyl, N-(4-((3-chloro-4-fluorophenyl)carbamoyl)-7-fluoro-1-methyl-2,3-dihydro-1H-inden-1-yl) carbamate]",12 µM
2,"COC(=O)NC1c2c(F)ccc(C(=O)Nc3ccc(F)c(Cl)c3)c2CC1(C)C (stereo not drawn) [Compound 122, O-Methyl, N-(4-((3-chloro-4-fluorophenyl)carbamoyl)-7-fluoro-2,2-dimethyl-2,3-dihydro-1H-inden-1-yl) carbamate]",0.47 µM
3,"O=C1NC(=O)C2(CCc3c(C(=O)Nc4ccc(F)c(Cl)c4)ccc(F)c32)N1 (single isomer, unassigned) [Compound 258, N-(3-chloro-4-fluoro-phenyl)-7′-fluoro-2,5-dioxo-spiro [imidazolidine-4,1′-indane]-4′-carboxamide]",0.57 µM
4,"O=C(N[C@H]1CCc2c(C(=O)Nc3ccc(F)c(Cl)c3)cccc21)OC1CC1 [Compound 229, O-cyclopropyl, N-(S)-(4-((3-chloro-4-fluorophenyl)carbamoyl)-2,3-dihydro-1H-inden-1-yl) carbamate]",0.36 µM
5,"O=C(NC1CCc2c(C(=O)Nc3ccc(F)c(Cl)c3)cncc21)OCc1ccccn1 (stereo not drawn) [Compound 270, O-Pyridin-2-ylmethyl, N-(4-((3-chloro-4-fluorophenyl)carbamoyl)-6,7-dihydro-5H-cyclopenta[c]pyridin-7-yl) carbamate]",1.1 µM

# Same assay, conditions: Hepatitis B virus, HepDE19, 168 h, HepDE19 cells, inhibition of rcDNA formation, 7 day incubation, top concentration 25 μM; read-out: DE-19 bDNA EC50
row,SMILES,EC50
1,"O=C(N[C@H]1CCc2c(C(=O)Nc3ccc(F)c(Cl)c3)ccc(F)c21)OCc1cn2ccccc2n1 [Compound 41, O-Imidazo[1,2-a]pyridin-2-ylmethyl, N—(S)-(4-((3-chloro-4-fluorophenyl)carbamoyl)-7-fluoro-2,3-dihydro-1H-inden-1-yl) carbamate]",0.16 µM
2,"CC(C)(C)OC(=O)N[C@H]1CCc2c(C(=O)Nc3ccc(F)c(Cl)c3)ccc(F)c21 [Compound 10, O-tert-Butyl, N—(S)-(4-((3-chloro-4-fluorophenyl)carbamoyl)-7-fluoro-2,3-dihydro-1H-inden-1-yl) carbamate]",0.8 µM
3,"O=C(N[C@H]1CCc2c(C(=O)Nc3ccc(F)c(Cl)c3)ccc(F)c21)c1ccncc1 [Compound 120, (S)—N-(4-((3-Chloro-4-fluorophenyl)carbamoyl)-7-fluoro-2,3-dihydro-1H-inden-1-yl)isonicotinamide]",0.24 µM
4,"O=C(N[C@H]1CCc2c(C(=O)Nc3ccc(F)c(Cl)c3)ccc(F)c21)c1ccccn1 [Compound 115, (S)—N-(4-((3-Chloro-4-fluorophenyl)carbamoyl)-7-fluoro-2,3-dihydro-1H-inden-1-yl)picolinamide]",2.2 µM
5,CN1C(=O)CC[C@H]1COC(=O)N[C@H]1CCc2c(C(=O)Nc3ccc(F)c(Cl)c3)ccc(F)c21 [Compound 39],0.6 µM
6,"Cc1cc(NC(=O)c2cccc3c2CC[C@@H]3NC(=O)OCc2ccccn2)ccc1F [Compound 23, O-Pyridin-2-ylmethyl, N—(S)-(4-((4-fluoro-3-methylphenyl)carbamoyl)-2,3-dihydro-1H-inden-1-yl) carbamate]",0.45 µM
7,"O=C(N[C@H]1CCc2c(C(=O)Nc3ccc(F)c(Cl)c3)ccc(F)c21)c1cncs1 [Compound 116, (S)—N-(4-((3-Chloro-4-fluorophenyl)carbamoyl)-7-fluoro-2,3-dihydro-1H-inden-1-yl)thiazole-5-carboxamide]",1.7 µM

# Same assay, conditions: Hepatitis B virus, HepDE19, 168 h, read-out: DE-19 bDNA EC50 (μM), HepDE19 cells, inhibition of rcDNA formation, 7 day incubation, top concentration 25 μM
row,SMILES,EC50
1,"O=C(Nc1ccc(F)c(Cl)c1)c1ccc(F)c2c1CC[C@@H]2NS(=O)(=O)CCc1ccccn1 [Compound 167, (S)—N-(3-Chloro-4-fluorophenyl)-7-fluoro-1-((2-(pyridin-2-yl)ethyl)sulfonamido)-2,3-dihydro-1H-indene-4-carboxamide Hydrochloride]",0.29 µM
2,"COc1ccc(COC(=O)N[C@H]2CCc3c(C(=O)Nc4ccc(F)c(Cl)c4)ccc(F)c32)nc1 [Compound 107, O-(5-Methoxypyridin-2-yl)methyl, N—(S)-(4-((3-chloro-4-fluorophenyl)carbamoyl)-7-fluoro-2,3-dihydro-1H-inden-1-yl) carbamate Hydrochloride]",1.2 µM
3,"CNC(=O)N1CCC(COC(=O)N[C@H]2CCc3c(C(=O)Nc4ccc(F)c(Cl)c4)ccc(F)c32)CC1 [Compound 176, O-(1-(Methylcarbamoyl)piperidin-4-yl)methyl, N—(S)-(4-((3-chloro-4-fluorophenyl)carbamoyl)-7-fluoro-2,3-dihydro-1H-inden-1-yl) carbamate]",0.64 µM
4,"O=C1CC[C@H](COC(=O)N[C@H]2CCc3c(C(=O)Nc4ccc(F)c(Cl)c4)cccc32)N1 [Compound 21, O—((R)-5-Oxopyrrolidin-2-yl)methyl, N—((S)-4-((3-chloro-4-fluorophenyl)carbamoyl)-2,3-dihydro-1H-inden-1-yl) carbamate]",0.58 µM
5,"Cc1nccnc1COC(=O)N[C@H]1CCc2c(C(=O)Nc3ccc(F)c(Cl)c3)ccc(F)c21 [Compound 173, O-(3-Methylpyrazin-2-yl)methyl, N—(S)-(4-((3-chloro-4-fluorophenyl)carbamoyl)-7-fluoro-2,3-dihydro-1H-inden-1-yl) carbamate]",0.12 µM
6,"O=C(N[C@H]1CCc2c(C(=O)Nc3ccc(F)c(Cl)c3)ccc(F)c21)OCc1ncn(COP(=O)(O)O)n1 [Compound 253, O-(1-((Phosphonoxy)methyl)-1H-1,2,4-triazol-3-yl)methyl, N—(S)-(4-((3-chloro-4-fluorophenyl)carbamoyl)-7-fluoro-2,3-dihydro-1H-inden-1-yl) carbamate]",0.12 µM
7,"O=C1CC[C@H](COC(=O)N[C@H]2CCc3c(C(=O)Nc4ccc(F)c(Cl)c4)ccc(F)c32)N1 [Compound 9, O—((R)-5-Oxopyrrolidin-2-yl)methyl, N—((S)-4-((3-chloro-4-fluorophenyl)carbamoyl)-7-fluoro-2,3-dihydro-1H-inden-1-yl) carbamate]",0.58 µM
8,"O=C(Nc1ccc(F)c(Cl)c1)c1ccc(F)c2c1CC[C@@H]2NS(=O)(=O)c1ccccc1 [Compound 183, (S)—N-(3-Chloro-4-fluorophenyl)-7-fluoro-1-(phenylsulfonamido)-2,3-dihydro-1H-indene-4-carboxamide]",0.65 µM
9,"CC(=O)N1CCC(COC(=O)N[C@H]2CCc3c(C(=O)Nc4ccc(F)c(Cl)c4)ccc(F)c32)CC1 [Compound 174, O-(1-Acetylpiperidin-4-yl)methyl, N—(S)-(4-((3-chloro-4-fluorophenyl)carbamoyl)-7-fluoro-2,3-dihydro-1H-inden-1-yl) carbamate]",0.87 µM
10,"O=C(Nc1ccncc1)N[C@H]1CCc2c(C(=O)Nc3ccc(F)c(Cl)c3)ccc(F)c21 [Compound 145, (S)—N-(3-Chloro-4-fluorophenyl)-7-fluoro-1-(3-(pyridin-4-yl)ureido)-2,3-dihydro-1H-indene-4-carboxamide]",0.93 µM

# Same assay, conditions: read-out: DE-19 bDNA EC50; HepDE19 cells, inhibition of rcDNA formation, 7 day incubation, top concentration 25 μM
row,SMILES,EC50
1,"COC(=O)NC1COc2c(C(=O)Nc3ccc(F)c(C)c3)ccc(F)c21 (stereo not drawn) [Compound 201, O-Methyl, N-(4-fluoro-7-((4-fluoro-3-methylphenyl)carbamoyl)-2,3-dihydrobenzofuran-3-yl) carbamate]",5.5 µM
2,"O=C(NC1COc2c(C(=O)Nc3ccc(F)c(Cl)c3)ccc(F)c21)OCc1ccccn1 (single isomer, unassigned) [Compound 192, O-Pyridin-2-ylmethyl, N-(7-((3-chloro-4-fluorophenyl)carbamoyl)-4-fluoro-2,3-dihydrobenzofuran-3-yl)carbamate]",0.31 µM
3,"CNC(=O)NC1COc2c(C(=O)Nc3ccc(F)c(F)c3)cccc21 (single isomer, unassigned) [Compound 7, N-(3,4-difluorophenyl)-3-(3-methylureido)-2,3-dihydrobenzofuran-7-carboxamide]",1.9 µM
4,"CC1(C)Cc2c(C(=O)Nc3ccc(F)c(Cl)c3)ccc(F)c2C1NC(=O)OCc1ccccn1 (stereo not drawn) [Compound 136, O-Pyridin-2-ylmethyl, N-(4-((3-chloro-4-fluorophenyl)carbamoyl)-7-fluoro-2,2-dimethyl-2,3-dihydro-1H-inden-1-yl) carbamate]",0.29 µM
5,"COC(=O)NC1COc2c(C(=O)Nc3ccc(F)c(C)c3)ccc(F)c21 (stereo not drawn) [Compound 202, O-Methyl, N-(4-fluoro-7-((4-fluoro-3-methylphenyl)carbamoyl)-2,3-dihydrobenzofuran-3-yl) carbamate]",0.42 µM
